Among the test systems are UO-31; CAKI-1; T47D; OVCAR-8; BT-549; SNB-75; NCI-H522; HOP-92; NCI-H226; ACHN; HCC 2998; LOX IMVI; COLO 205; HCT-116; NCI-H23; SF-539; M14; EKVX; NCI/ADR-RES; MDA-MB-435.
Holding throughout (assay): NCI anticancer screen, dose series, 48 h

Each structure is given as a SMILES string.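 Each compound was tested at five concentrations against cells in 96-well plates for 48 hours. GI50 is the concentration that inhibits growth by half.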 Activity calls are given as the source filed them. Rule as the data show it: active = GI50 up to about 1.1 µM and inactive = higher.

In the case of `O=C(O)c1nc(-c2ccccc2)ncc1-c1nnnn1-c1ccccc1`, the GI50 in the assay on UO-31, in the assay with CAKI-1, in the assay with T47D, in the assay on OVCAR-8, in the assay with BT-549 and in the assay with SNB-75 was > 100 µM (inactive) throughout. For the same compound, the GI50 in the assay with NCI-H522, with HOP-92, in the assay on NCI-H226, in the assay on ACHN, in the assay on HCC 2998 and with LOX IMVI was > 100 µM (inactive) in each case. In addition, the GI50 with COLO 205, in the assay on HCT-116, in the assay on NCI-H23, with SF-539, in the assay with M14 and with EKVX was > 100 µM (inactive) each time. In addition, the GI50 in the assay on NCI/ADR-RES and in the assay with MDA-MB-435 was > 100 µM (inactive) each time.

As for `C[C@H](N)C(=O)N[C@@H]1[C@H]2C(=C(O)C[C@@H](O)[C@@H]2O)C(=O)O[C@]1(C)C(Cl)Cl` [BACTOBOLIN], the GI50 in the assay with UO-31 is 0.979 µM (active); with CAKI-1, 0.166 µM (active); with T47D it was 0.209 µM (active); in the assay on OVCAR-8 it was 0.167 µM (active); in the assay with BT-549, 0.165 µM (active); in the assay with SNB-75 it was 0.185 µM (active). Further, the GI50 was 0.16 µM (active) in the assay on NCI-H522; 0.111 µM (active) with HOP-92; 0.195 µM (active) with NCI-H226; 0.176 µM (active) in the assay with ACHN; 0.164 µM (active) in the assay on HCC 2998; 0.0946 µM (active) in the assay on LOX IMVI. Further, the GI50 with COLO 205 is 0.105 µM (active); in the assay with HCT-116 it was 0.145 µM (active); with NCI-H23 it was 0.183 µM (active); with SF-539 it was 0.229 µM (active); in the assay on M14, 0.128 µM (active); in the assay with EKVX it was 0.207 µM (active). Besides, the GI50 was 3.36 µM (inactive) with NCI/ADR-RES and 0.248 µM (active) in the assay with MDA-MB-435.

The values above are taken from ChEMBL document CHEMBL1201862, “PubChem BioAssay data set” (2004).
